In patent publication US6515012B2, “Process for the preparation of zofenopril calcium salt” (Menarini Ricerche S.p.A., priority 1998, dated 2003):
Where a name gives a salt, the structure may show the parent alone.

Key:
[1] = storage stability of zofenopril calcium salt samples (interconversion to polymorph B, by DRX); format: physicochemical
Excerpt: Determination of polymorph B in the samples of Polymoroh A : The percentage of polymorph B in samples of Polymorph A can easily be evaluated by observation of the X diffractograms (DRX). The region used for the analysis was that for 2θ ranging from 15 to 25. In this region, three peaks were evidenced, respectively I with […], II with 2θ=19.2 and III with 20θ=19.9, and the relative intensities I/III and II/III of various Polymorph A samples containing known amounts of Polymorph B (not above 30%) were measured. A regression equation was thereby obtained, which correlates the intensities of peaks I and II relating to peak III with the percentage of polymorph B present in the samples. The precision and the accuracy of the results obtainable with the above mentioned equation were good and, based on the confidence limits, the minimum amount of polymorph B detectable in polymorph A could be evaluated to be <7%. FIG. 4 reports the relationship between the above mentioned values based on the thus calculated regression equation and the observed values.

[2] = Stability to micronisation of Polymorphs (grinding in ball microniser, DRX); format: physicochemical; conditions: Retsch MM2 ball microniser, 200 mg sample, 80 vibrations/min, 15 minutes
[3] = resistance to compression and/or micronisation; format: physicochemical; conditions: polymorph A compared with polymorph B
[4] = tablets prepared with polymorph A or with polymorph B; J. Pharmaceutical & Biomedical Analysis, 1994, Vol 12, pp. 173-177; cited from earlier work

Structure (SMILES) | interconversion to polymorph B ([1]; samples obtained according to the process of the invention) | percentage of polymorph B after storage ([1]; stored for 3 years at 25° C. and 60% relative humidity) | percentage of polymorph B after storage ([1]; stored for 6 months at 40° C. and 75% relative humidity) | crystalline structure after grinding, according to DRX [2] | resistance to compression and/or micronisation [3] | dissolution rate of tablets [4]
C[C@H](CSC(=O)c1ccccc1)C(=O)N1C[C@@H](Sc2ccccc2)C[C@H]1C(=O)O [zofenopril calcium salt, [(4S)-(2S)-3-(benzoylthio)-2-methylpropionyl-4 (phenylthio)-L-proline] calcium salt] | no interconversion to polymorph B | below 7% | below 7% |  |  | 
C[C@H](CSC(=O)c1ccccc1)C(=O)N1C[C@@H](Sc2ccccc2)C[C@H]1C(=O)O [polymorph A] |  |  |  | still keeps the crystalline structure | more resistant to compression and/or micronisation than polymorph B | could not be differentiated
C[C@H](CSC(=O)c1ccccc1)C(=O)N1C[C@@H](Sc2ccccc2)C[C@H]1C(=O)O [polymorph B] |  |  |  | completely loses its crystalline structure |  | could not be differentiated
